# Laboratory results from ChEMBL document CHEMBL1149498, “Uncompetitive antagonism of AMPA receptors: Mechanistic insights from studies of polyamine toxin derivatives” (J Med Chem, 2006).
# Target: T1, Glutamate receptor 1 (Rattus norvegicus, UniProt P19490)
# Assay: Antagonist activity against rat GluR1 flop expressed in Xenopus laevis oocyte assessed as inhibition of glutamate-induced current at holding potential -80 mV by two electrode voltage clamp method
# Type: functional
# T1 sequence (P19490 whole entry): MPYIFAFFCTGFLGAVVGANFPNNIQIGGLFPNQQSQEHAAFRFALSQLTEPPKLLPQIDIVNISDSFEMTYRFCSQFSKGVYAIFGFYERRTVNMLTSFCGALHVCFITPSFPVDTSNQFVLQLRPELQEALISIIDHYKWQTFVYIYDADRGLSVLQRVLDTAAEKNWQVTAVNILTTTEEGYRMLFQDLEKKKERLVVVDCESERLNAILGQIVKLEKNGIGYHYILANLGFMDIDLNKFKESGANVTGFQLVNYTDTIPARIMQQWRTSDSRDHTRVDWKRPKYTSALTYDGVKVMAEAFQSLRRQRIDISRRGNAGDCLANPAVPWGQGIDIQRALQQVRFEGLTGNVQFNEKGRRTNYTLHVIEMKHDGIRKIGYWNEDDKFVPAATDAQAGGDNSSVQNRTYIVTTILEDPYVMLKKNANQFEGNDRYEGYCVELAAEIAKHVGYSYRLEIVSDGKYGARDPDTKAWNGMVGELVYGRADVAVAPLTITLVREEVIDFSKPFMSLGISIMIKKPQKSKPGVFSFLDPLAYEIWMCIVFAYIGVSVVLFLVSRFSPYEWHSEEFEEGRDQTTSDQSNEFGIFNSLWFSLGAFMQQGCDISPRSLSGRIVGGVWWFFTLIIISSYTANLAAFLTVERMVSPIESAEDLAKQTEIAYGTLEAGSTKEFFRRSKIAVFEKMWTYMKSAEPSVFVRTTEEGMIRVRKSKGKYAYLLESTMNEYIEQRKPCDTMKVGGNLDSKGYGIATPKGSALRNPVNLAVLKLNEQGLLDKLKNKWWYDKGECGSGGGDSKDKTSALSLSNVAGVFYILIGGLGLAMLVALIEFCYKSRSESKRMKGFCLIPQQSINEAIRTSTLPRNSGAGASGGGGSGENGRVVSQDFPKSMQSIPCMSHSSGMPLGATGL
row,SMILES,Ki [nM]
1,CCCC(=O)N[C@@H](Cc1ccc(O)cc1)C(=O)NCCCCCNCCCCCN,95
2,CCCC(=O)N[C@@H](Cc1ccc(O)cc1)C(=O)NCCCCNCCCCCCN,53
3,CCCC(=O)N[C@@H](Cc1ccc(O)cc1)C(=O)NCCCCCNCCCCCCCCN,330
4,CCCC(=O)N[C@@H](Cc1ccc(O)cc1)C(=O)NCCCCCNCCCCCCCCCCCCN,480
5,CCCC(=O)N[C@@H](Cc1ccc(O)cc1)C(=O)NCCNCCCCCCN,208
6,CCCC(=O)N[C@@H](Cc1ccc(O)cc1)C(=O)NCCCCCNCCCN,63
7,CCCC(=O)N[C@@H](Cc1ccc(O)cc1)C(=O)NCCCCNCCCCCCCN,38
8,CCCC(=O)N[C@@H](Cc1ccc(O)cc1)C(=O)NCCCCCCCCCNCCCCCCN,37
9,CCCC(=O)N[C@@H](Cc1ccc(O)cc1)C(=O)NCCCCCCCNCCCCN,168
10,CCCC(=O)N[C@@H](Cc1ccc(O)cc1)C(=O)NCCCCCNCCCCCCN,3
11,CCCC(=O)N[C@@H](Cc1ccc(O)cc1)C(=O)NCCCCCCCCNCCCCCCN,77
12,CCCC(=O)N[C@@H](Cc1ccc(O)cc1)C(=O)NCCCCCNCCN,410
13,CCCC(=O)N[C@@H](Cc1ccc(O)cc1)C(=O)NCCCCCNCCCCN,68
14,CCCC(=O)N[C@@H](Cc1ccc(O)cc1)C(=O)NCCCCCNCCCCCCCN,110
15,CCCC(=O)N[C@@H](Cc1ccc(O)cc1)C(=O)NCCCCCNCCCCCCCCCCN,180
16,CCCC(=O)N[C@@H](Cc1ccc(O)cc1)C(=O)NCCCCCCCNCCCCCCN,208
17,CCCC(=O)N[C@@H](Cc1ccc(O)cc1)C(=O)NCCCNCCCCCCCCN,350
18,CCCC(=O)N[C@@H](Cc1ccc(O)cc1)C(=O)NCCCCCCNCCCCCCN,685
19,CCCC(=O)N[C@@H](Cc1ccc(O)cc1)C(=O)NCCCNCCCCCCN,126
20,CCCC(=O)N[C@@H](Cc1ccc(O)cc1)C(=O)NCCCCCCCCCNCCN,410
21,CCCC(=O)N[C@@H](Cc1ccc(O)cc1)C(=O)NCCCCCNCCCCCCCCCN,450
22,CCCC(=O)N[C@@H](Cc1ccc(O)cc1)C(=O)NCCCCCCCCNCCCN,65
23,CCCC(=O)N[C@@H](Cc1ccc(O)cc1)C(=O)NCCCCCCNCCCCCN,468

# Target: T1, Glutamate receptor 1
# Assay: Antagonist activity against rat GluR1 flop expressed in Xenopus laevis oocyte assessed as inhibition of glutamate-induced current at holding potential -100 mV by two electrode voltage clamp method
# Type: functional
row,SMILES,Ki [nM]
1,CCCC(=O)N[C@@H](Cc1ccc(O)cc1)C(=O)NCCCCCNCCCCCN,13
2,CCCC(=O)N[C@@H](Cc1ccc(O)cc1)C(=O)NCCCCCNCCCCCCCCN,37
3,CCCC(=O)N[C@@H](Cc1ccc(O)cc1)C(=O)NCCCCCNCCCCCCCCCCCCN,77
4,CCCC(=O)N[C@@H](Cc1ccc(O)cc1)C(=O)NCCCCCNCCCN,14
5,CCCC(=O)N[C@@H](Cc1ccc(O)cc1)C(=O)NCCCCCNCCCCCCN,10
6,CCCC(=O)N[C@@H](Cc1ccc(O)cc1)C(=O)NCCCCCNCCN,140
7,CCCC(=O)N[C@@H](Cc1ccc(O)cc1)C(=O)NCCCCCNCCCCN,13
8,CCCC(=O)N[C@@H](Cc1ccc(O)cc1)C(=O)NCCCCCNCCCCCCCN,10
9,CCCC(=O)N[C@@H](Cc1ccc(O)cc1)C(=O)NCCCCCNCCCCCCCCCCN,26
10,CCCC(=O)N[C@@H](Cc1ccc(O)cc1)C(=O)NCCCCCNCCCCCCCCCN,65

# Target: T1, Glutamate receptor 1
# Assay: Antagonist activity against rat GluR1 flop expressed in Xenopus laevis oocyte assessed as inhibition of glutamate-induced current at holding potential -60 mV by two electrode voltage clamp method
# Type: functional
row,SMILES,Ki [nM]
1,CCCC(=O)N[C@@H](Cc1ccc(O)cc1)C(=O)NCCCCCNCCCCCN,460
2,CCCC(=O)N[C@@H](Cc1ccc(O)cc1)C(=O)NCCCCCNCCCCCCCCN,2300
3,CCCC(=O)N[C@@H](Cc1ccc(O)cc1)C(=O)NCCCCCNCCCCCCCCCCCCN,3100
4,CCCC(=O)N[C@@H](Cc1ccc(O)cc1)C(=O)NCCCCCNCCCN,270
5,CCCC(=O)N[C@@H](Cc1ccc(O)cc1)C(=O)NCCCCCNCCCCCCN,660
6,CCCC(=O)N[C@@H](Cc1ccc(O)cc1)C(=O)NCCCCCNCCN,1500
7,CCCC(=O)N[C@@H](Cc1ccc(O)cc1)C(=O)NCCCCCNCCCCN,450
8,CCCC(=O)N[C@@H](Cc1ccc(O)cc1)C(=O)NCCCCCNCCCCCCCN,1100
9,CCCC(=O)N[C@@H](Cc1ccc(O)cc1)C(=O)NCCCCCNCCCCCCCCCCN,1200
10,CCCC(=O)N[C@@H](Cc1ccc(O)cc1)C(=O)NCCCCCNCCCCCCCCCN,5000

# Target: T2, Glutamate receptor ionotropic, AMPA (Rattus norvegicus, UniProt P19490+P19491+P19492+P19493)
# Assay: Antagonist activity against rat brain AMPA receptor expressed in Xenopus laevis oocyte assessed as inhibition of kainate-induced current at holding potential -80 mV by two electrode voltage clamp method
# Type: functional
row,SMILES,IC50 [nM]
1,CCCC(=O)N[C@@H](Cc1ccc(O)cc1)C(=O)NCCCCCNCCCCCN,207
2,CCCC(=O)N[C@@H](Cc1ccc(O)cc1)C(=O)NCCCCNCCCCCCN,324
3,CCCC(=O)N[C@@H](Cc1ccc(O)cc1)C(=O)NCCCCCNCCCCCCCCN,160
4,CCCC(=O)N[C@@H](Cc1ccc(O)cc1)C(=O)NCCNCCCCCCN,310
5,CCCC(=O)N[C@@H](Cc1ccc(O)cc1)C(=O)NCCCCCNCCCN,1100
6,CCCC(=O)N[C@@H](Cc1ccc(O)cc1)C(=O)NCCCCNCCCCCCCN,16
7,CCCC(=O)N[C@@H](Cc1ccc(O)cc1)C(=O)NCCCCCCCCCNCCCCCCN,86
8,CCCC(=O)N[C@@H](Cc1ccc(O)cc1)C(=O)NCCCCCCCNCCCCN,138
9,CCCC(=O)N[C@@H](Cc1ccc(O)cc1)C(=O)NCCCCCNCCCCCCN,87
10,CCCC(=O)N[C@@H](Cc1ccc(O)cc1)C(=O)NCCCCCCCCNCCCCCCN,25
11,CCCC(=O)N[C@@H](Cc1ccc(O)cc1)C(=O)NCCCCCNCCN,12300
12,CCCC(=O)N[C@@H](Cc1ccc(O)cc1)C(=O)NCCCCCNCCCCN,283
13,CCCC(=O)N[C@@H](Cc1ccc(O)cc1)C(=O)NCCCCCNCCCCCCCN,127
14,CCCC(=O)N[C@@H](Cc1ccc(O)cc1)C(=O)NCCCCCCCNCCCCCCN,45
15,CCCC(=O)N[C@@H](Cc1ccc(O)cc1)C(=O)NCCCNCCCCCCCCN,248
16,CCCC(=O)N[C@@H](Cc1ccc(O)cc1)C(=O)NCCCCCCNCCCCCCN,270
17,CCCC(=O)N[C@@H](Cc1ccc(O)cc1)C(=O)NCCCNCCCCCCN,547
18,CCCC(=O)N[C@@H](Cc1ccc(O)cc1)C(=O)NCCCCCCCCCNCCN,122
19,CCCC(=O)N[C@@H](Cc1ccc(O)cc1)C(=O)NCCCCCNCCCCCCCCCN,798
20,CCCC(=O)N[C@@H](Cc1ccc(O)cc1)C(=O)NCCCCCCCCNCCCN,39
21,CCCC(=O)N[C@@H](Cc1ccc(O)cc1)C(=O)NCCCCCCNCCCCCN,388

# Target: T2, Glutamate receptor ionotropic, AMPA
# Assay: Antagonist activity against rat brain AMPA receptor expressed in Xenopus laevis oocyte assessed as inhibition of kainate-induced current by two electrode voltage clamp method at holding potential -60 mV
row,SMILES,IC50 [nM]
1,CCCC(=O)N[C@@H](Cc1ccc(O)cc1)C(=O)NCCCCNCCCCCCCN,60.1

# Target: T2, Glutamate receptor ionotropic, AMPA
# Assay: Antagonist activity against rat brain AMPA receptor expressed in Xenopus laevis oocyte assessed as inhibition of kainate-induced current by two electrode voltage clamp method at holding potential -40 mV
row,SMILES,IC50 [nM]
1,CCCC(=O)N[C@@H](Cc1ccc(O)cc1)C(=O)NCCCCNCCCCCCCN,176

# Target: T2, Glutamate receptor ionotropic, AMPA
# Assay: Antagonist activity against rat brain AMPA receptor expressed in Xenopus laevis oocyte assessed as inhibition of kainate-induced current by two electrode voltage clamp method at holding potential -100 mV
row,SMILES,IC50 [nM]
1,CCCC(=O)N[C@@H](Cc1ccc(O)cc1)C(=O)NCCCCNCCCCCCCN,3.3
